Measured values reported in EP3505527A1, “CYCLIC DINUCLEOTIDES FOR CYTOKINE INDUCTION” (Invivogen, priority 2017, dated 2019).
Where two headings read alike, the source gives them in different places.

Columns and labels:
RAW-Difluo™ mLC3 Cells = assay: Autophagy induction (puncta formation) in RAW-Difluo mLC3 reporter cells; format: cell-based, murine; settings: 8 hours
Method: The ability of the CDNs of the present invention, to activate STING-dependent autophagy induction was measured using the murine autophagy reporter cell line obtained directly from InvivoGen.
RAW-Difluo™ mLC3 Cells are autophagy reporter cells derived from the murine RAW 264.7 macrophage cell line, a physiologically relevant cell line. They express an RFP::GFP::LC3 fusion protein, RFP-GFP-LC3, in which the N-terminus of murine LC3 is fused to two fluorescent reporter proteins: a RFP (acid-stable) and a GFP (acid-sensitive). In these cells, the RFP-GFP pair enables monitoring of autophagic flux in real time by detecting the appearance of green (GFP-LC3) and/or red (RFP-LC3) puncta by fluorescence microscopy.
Approximately 50,000 cells (500 µL) per well of 24-well plates were seeded 24 h before treatment. The next day, the cells were treated either with a solution containing a CDN at one of three different concentrations (1 µg/mL, 3 µg/mL or 10 µg/mL) or with Rapamycin at 25 µM, or were left untreated. The plates were incubated at 37 °C in a CO2 incubator for 8 hours. Fluorescence intensity and puncta formation was monitored at λexc = 480 nm and λem = 505 nm.

IRF pathway [1] = target: T1, IRF pathway (Homo sapiens, UniProt Q86WV6); assay: ISG54 (IRF pathway) Lucia reporter assay in THP-1-Dual cells, Type I IFN induction; format: cell-based
T1 sequence (Q86WV6 whole entry): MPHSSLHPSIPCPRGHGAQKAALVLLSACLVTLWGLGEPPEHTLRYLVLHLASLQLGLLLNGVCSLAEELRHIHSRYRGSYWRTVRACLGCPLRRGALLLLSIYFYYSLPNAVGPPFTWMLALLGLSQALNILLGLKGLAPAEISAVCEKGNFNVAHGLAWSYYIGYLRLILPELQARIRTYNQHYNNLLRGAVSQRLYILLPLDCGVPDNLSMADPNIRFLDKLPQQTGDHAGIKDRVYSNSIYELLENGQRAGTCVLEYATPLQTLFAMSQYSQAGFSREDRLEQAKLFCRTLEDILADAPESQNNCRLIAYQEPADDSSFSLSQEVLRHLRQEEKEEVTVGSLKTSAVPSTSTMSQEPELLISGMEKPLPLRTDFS
Text: The IRF pathway has been investigated by using the two following ISG reporter cell lines obtained directly from InvivoGen. They are described here and provided with their corresponding InvivoGen catalog code.

NF-κB pathway = NF-κB pathway (Homo sapiens, UniProt Q86WV6); assay: NF-κB SEAP reporter assay in THP1 Dual cells; format: cell-based
Sequence of NF-κB pathway (Q86WV6 whole entry): as above

STING = assay: STING-dependent cytokine induction, overall activity in words (THP1 Dual in vitro and whole blood ex vivo, Tables 2 to 4); format: cell-based, human; settings: comment on Tables 2 and 3
Text: (§1) . The ex vivo (whole blood assay) cytokine-induction activity of a representative set these cyclic dinucleotides is reported here with the same protocol described in Example 2.2.
as §1, §1

IRF pathway [2] = target: T1, IRF pathway; assay: ISG54 reporter assay in THP-1-Dual KO-STING cells; format: cell-based; settings: THP1-Dual KO-STING cells (Figures 2A and 2B)
Text: THP-1-Dual™-KO-STING (InvivoGen catalog code: thpd-kostg): These cells were generated from the human monocyte THP-1-Dual™, through stable homozygote knockout of the STING gene. Bialielic STING knockout was verified by functional assays, PCR and DNA sequencing.

[3] = tested on: Panc02 (murine pancreatic tumor cell line); assay: Murine orthotopic Panc02 pancreatic cancer model, i.p. monotherapy; format: in vivo, mouse; settings: for final mean tumor volume: Panc02, 1 mg/Kg i.p. once daily, 4 days a week for 3 weeks; for final mean tumor volume / incidence of metastasis: day 28; for tumor growth / incidence of metastasis: Panc02, 1 mg/Kg i.p.; for tumor growth: compared with control group
Text: • Species evaluated: mouse • Tumor model: Panc02 (murine pancreatic tumor cell line) • Treatments tested: CL735 and CL742 (monotherapy) • Clinical parameters evaluated: tumor volume, tumor weight and incidence of metastasis • Administration routes evaluated: intraperitoneal (i.p.) injection
On Day 1, […] (C57BL/6; male) received an orthotopic injection of Panc02 tumor cells (1 x 106) in the pancreas. On Day 8, the mice were then divided into two groups of eight each (treated groups) and one group of five (control group). Each group received a different treatment, as outlined below: • Group 1 (control): saline (by i.p. injection) once daily, 4 days a week for 3 weeks; • Group 2: CL735 at 1 mg/Kg (by i.p. injection) once daily, 4 days a week for 3 weeks; • Group 3: CL742 at 1 mg/Kg (by i.p. injection) once daily, 4 days a week for 3 weeks
Left: Weight of individual Panc02 tumors at day 28 by treatment group. Right: Mean tumor weight at day 28, sd and sem for each group. • Figure 9. Left: Volume of individual Panc02 tumors at day 28 by treatment group. Right: Mean tumor volume at day 28, sd and sem for each group. • Figure 10. Incidence of metastasis in a murine model of Panc02 tumors. The mice were treated with saline (control), CL735 or CL742 monotherapies and metastases number was recorded at day 28. On the right, table indicated the mean of metastases number on animals that have survived by day 28, sd and sem for each group.

[4] = tested on: B16 (murine melanoma tumor cell line); assay: Murine subcutaneous B16 melanoma model, i.t. monotherapy; format: in vivo, mouse
Text: • Species evaluated: mouse • Tumor model: B16 (murine melanoma tumor cell line) • Treatments tested: CL742 and CL747 (monotherapy) • Clinical parameters evaluated: tumor volume • Administration routes evaluated: intratumoral (i.t.) injection
On Day 1, 15 mice (C57BL/6; male) received a subcutaneous injection of B16 tumor cells (1 x 105) on the right flank. On Day 13, the mice were then divided into two groups of five each (treated groups) and one group of five (control group). Each group received a different treatment, as outlined below: • Group 1 (control): saline (i.t. injection) at days 13 16 and 20; • Group 2: CL742 at 1.25 mg/Kg (i.t. injection) at days 13 16 and 20; • Group 3: CL747 at 1.25 mg/Kg (i.t. injection) at days 13 16 and 20
The tumor volume and animal weight were monitored every 2 days and animals were euthanized at Day 28 (Figure 11).

Row | Compound | Autophagy level (RAW-Difluo™ mLC3 Cells; 1 µg/mL) | Autophagy level (RAW-Difluo™ mLC3 Cells; 3 µg/mL) | Autophagy level (RAW-Difluo™ mLC3 Cells; 10 µg/mL) | activity (ranking between compounds) (STING) | other results
1 | O=c1[nH]cnc2c1ncn2[C@@H]1O[C@@H]2COP(=O)(O)O[C@H]3[C@@H](F)[C@H](n4cnc5c(=O)[nH]cnc54)O[C@@H]3COP(=O)(O)O[C@H]2[C@H]1F [CL626, reference compound] | ++ (50% of cells have puncta) | ++ (50% of cells have puncta) | ++ (50% of cells have puncta) |  | 
2 | Nc1ncnc2c1ncn2[C@@H]1O[C@@H]2COP(=O)(O)O[C@@H]3[C@@H](F)[C@@H](COP(=O)(O)O[C@H]2[C@H]1F)O[C@H]3n1cnc2c(N)ncnc21 [CL710, (2',3')c-[xylo3'F3'dAMP-2'FdAMP]] |  |  |  |  | EC50 (IRF pathway [1]; THP1 Dual cells, ISG read-out): > 50 µM; EC50 (NF-κB pathway; NFκB read-out): > 50 µM
3 | Nc1ncnc2c1ncn2[C@@H]1O[C@@H]2COP(=O)(O)O[C@@H]3[C@@H](F)[C@@H](COP(=O)(S)O[C@H]2[C@H]1F)O[C@H]3n1cnc2c(N)ncnc21 (some centres unmarked) [CL714, (2',3')c-[xylo3'F3'dAM(PS)-2'FdAMP]] |  |  |  | CL714 > CL766 | EC50 (IRF pathway [1]; THP1 Dual cells, ISG read-out): 4.84 µM; EC50 (NF-κB pathway; NFκB read-out): 14.6 µM
4 | CC(C)(C)C(=O)OCn1cnc2c(ncn2[C@@H]2O[C@@H]3COP(=O)(O)O[C@H]4[C@@H](F)[C@H](n5cnc6c(=O)[nH]cnc65)O[C@@H]4COP(=O)(O)O[C@H]3[C@H]2F)c1=O [CL733, c-[2'FdI(POM)MP-2'FdIMP]] | +/- (10% of cells have puncta) | +/- (10% of cells have puncta) | + (25% of cells have puncta) |  | 
5 | O=c1[nH]cnc2c1ncn2[C@@H]1O[C@@H]2COP(=O)(S)O[C@H]3[C@@H](F)[C@H](n4cnc5c(=O)[nH]cnc54)O[C@@H]3COP(=O)(S)O[C@H]2[C@H]1F (stereo partly drawn) [CL735, c-di[2'FdIMP(S)]] | ++ (50% of cells have puncta) | ++ (50% of cells have puncta) | ++ (50% of cells have puncta) |  | production of Type I interferons (IRF pathway [2]): did not induced production of Type I interferons; final mean tumor volume [3]: 150 +/- 69 mm3; tumor growth [3]: significant reduction in tumor growth; incidence of metastasis [3]: no metastases were found
6 | O=c1[nH]cnc2c1ncn2[C@@H]1O[C@@H]2COP(=O)(O)O[C@@H]3[C@@H](F)[C@@H](COP(=O)(O)O[C@H]2[C@H]1F)O[C@H]3n1cnc2c(=O)[nH]cnc21 [CL742, (2',3')c-[3'F3'XylodIMP-2'FdIMP]] | +/- (10% of cells have puncta) | +/- (10% of cells have puncta) | + (25% of cells have puncta) |  | production of Type I interferons (IRF pathway [2]): did not induced production of Type I interferons; mean tumor volume ([4]; B16, 1.25 mg/Kg i.t. at days 13 16 and 20, day 20): 779 +/- 816 mm3; tumor growth ([4]; B16, 1.25 mg/Kg i.t., compared with control group): significant reduction in tumor growth; final mean tumor volume [3]: 47 +/- 29 mm3; tumor growth [3]: significant reduction in tumor growth; incidence of metastasis [3]: no metastases were found
7 | CC(C)(C)C(=O)OCSP1(=O)OC[C@H]2O[C@@H](n3cnc4c(N)ncnc43)[C@H](F)[C@@H]2OP(=O)(SCOC(=O)C(C)(C)C)OC[C@H]2O[C@@H](n3cnc4c(=O)[nH]c(N)nc43)[C@H](O1)[C@H]2F (some centres unmarked) [CL751, (2',3')c-[3'F3'XylodGM(PS-POM)-2'FdAM(PS-POM)]] |  |  |  |  | EC50 (IRF pathway [1]; read-out: EC50 THP1 Dual ISG): 0.93 µM; EC50 (NF-κB pathway; read-out: EC50 THP1 Dual NFκB): 2.51 µM
8 | CC(C)(C)C(=O)OCSP1(=O)OC[C@H]2O[C@@H](n3cnc4c(N)ncnc43)[C@H](F)[C@@H]2OP(=O)(SCOC(=O)C(C)(C)C)OC[C@H]2O[C@@H](n3cnc4c(N)ncnc43)[C@H](O1)[C@H]2F (some centres unmarked) [CL760, (2',3')c-[xylo3'F3'dAM(PS-POM)-2'FdAM(PS-POM)]] |  |  |  |  | EC50 (IRF pathway [1]; read-out: EC50 THP1 Dual ISG): 0.33 µM; EC50 (NF-κB pathway; read-out: EC50 THP1 Dual NFκB): 1.76 µM
9 | Nc1nc(Cl)nc2c1ncn2[C@H]1C[C@@H]2OP(=O)(O)OC[C@H]3O[C@@H](n4cnc5c(=O)[nH]cnc54)[C@H](F)[C@@H]3OP(=O)(O)OC[C@H]2O1 [CL761, (3'3')c-(2CIdAMP-2'FdIMP)] |  |  |  | CL761 < CL760 | 
10 | CC(C)(C)C(=O)OCn1cnc2c(ncn2[C@@H]2O[C@@H]3COP(=O)(O)O[C@H]4C[C@H](n5cnc6c(N)nc(Cl)nc65)O[C@@H]4COP(=O)(O)O[C@H]3[C@H]2F)c1=O [CL762, (3'3')c-[2CIdAMP-2'FdI(POM)MP]] |  |  |  | CL762 < CL760 | 
11 | Nc1ncnc2c1ncn2[C@@H]1O[C@@H]2COP(=O)(S)O[C@@H]3[C@@H](F)[C@@H](COP(=O)(S)O[C@H]2[C@H]1F)O[C@H]3n1cnc2c(N)ncnc21 (some centres unmarked) [CL766, (2',3')c-[xylo 3'F3'dAM(PS)-2'FdAM(PS)]] |  |  |  |  | EC50 (IRF pathway [1]; THP1 Dual cells, ISG read-out): > 50 µM; EC50 (NF-κB pathway; NFκB read-out): > 50 µM
12 | Nc1ncnc2c1ncn2[C@@H]1O[C@@H]2COP(=O)(O)O[C@@H]3[C@@H](F)[C@@H](COP(=O)(S)O[C@H]2[C@H]1F)O[C@H]3n1cnc2c(=O)[nH]cnc21 (some centres unmarked) [CL781, (2',3')c-[3'F3'XylodIMP-2'FdAM(PS)]] |  |  |  | CL781 >> CL764 | 
13 | CC(C)(C)C(=O)OCSP1(=O)OC[C@H]2O[C@@H](n3cnc4c(=O)[nH]cnc43)[C@H](OP(=O)(O)OC[C@H]3O[C@@H](n4cnc5c(N)ncnc54)[C@H](F)[C@@H]3O1)[C@H]2F (some centres unmarked) [CL784, (2',3')c-[3'F3'XylodIMP-2'FdAM(PS-POM)]] |  |  |  | CL784 > CL781 | 
14 | CO[C@H]1C[C@@H]2CC[C@@H](C)[C@@](O)(O2)C(=O)C(=O)N2CCCC[C@H]2C(=O)O[C@H]([C@H](C)C[C@@H]2CC[C@@H](O)[C@H](OC)C2)CC(=O)[C@H](C)/C=C(\C)[C@@H](O)[C@@H](OC)C(=O)[C@H](C)C[C@H](C)/C=C/C=C/C=C/1C [Rapamycin, reference compound] |  |  |  |  | Autophagy level (RAW-Difluo™ mLC3 Cells; 25 µM): ++++ (90% of cells have puncta)
15 | O=c1[nH]cnc2c1ncn2[C@@H]1O[C@@H]2COP(=O)(O)O[C@H]3[C@@H](O)[C@H](n4cnc5c(=O)[nH]cnc54)O[C@@H]3COP(=O)(O)O[C@H]2[C@H]1O [cdiIMP, reference compound] | + (25% of cells have puncta) | ++ (50% of cells have puncta) | +++ (75% of cells have puncta) |  | 
16 | (2',3')c-[3'F3'XylodIM(PS)-2'FdI(POM)MP] [CL746] | ++ (50% of cells have puncta) | ++ (50% of cells have puncta) | ++ (50% of cells have puncta) |  | 
